Laboratory results as given in patent publication US20260042764A1, “COMPOSITIONS AND METHODS FOR INHIBITION OF KRAS” (TheRas, Inc., priority 2022, published 2026).

What was measured:
[1] = target: T1, Avi-KRAS G12V (1-169) GppNHp/RAF1 RBD-3xFLAG (52-151) (Homo sapiens, UniProt P01116, G12V); experiment: Raf1-KRAS G12V-GppNHP disruption HTRF assay (Biological Example 1); assay type: binding; settings: KRAS G12V, GppNHp-loaded; Table 11
T1 construct: Avi-KRAS G12V (1-169)
Protocol: (§1) A protein:protein interaction (PPI) Homogeneous Time Resolved Fluorescence (HTRF) assay was used to determine the effectiveness of compounds of the present disclosure in disrupting KRAS protein and effector RAF1 binding.
(§2) The assay buffer included: 50 mM Tris pH 7.5, 100 mM NaCl, 5 mM MgCl2, 0.1% BSA, 0.01% Tween, and 10% DMSO. The bead buffer included: 50 mM Tris pH 7.5, and 0.01% Tween 20. Assay volume of 20 μL was used in a 384 well plate-low volume format.
(§3) The HTRF assay employed the following protocol:
(§4) Protein mix was prepared in assay buffer, and dispensed on plates, 10 μL per well, then incubated for 1 h at room temperature, with 700 rpm shaking, Reagents mix was prepared and dispensed on plates, 10 μL per well, then incubated for 1 h at room temperature, with 700 rpm shaking.
(§5) Data was reported as percentage of activity, with DMSO as 100%. Data was plotted and analyzed using Prism 8.

[2] = target: T2, Avi-KRAS G12R (1-169) GppNHp/RAF1 RBD-3xFLAG (52-151) (Homo sapiens, UniProt P01116, G12R); experiment: Raf1-KRAS G12R-GppNHP disruption HTRF assay (Biological Example 1); assay type: binding; settings: KRAS G12R, GppNHp-loaded; Table 11
T2 construct: Avi-KRAS G12R (1-169)
Protocol: as §1, §2, §3, §4, §5

[3] = target: T3, Avi-KRAS G12D (1-169) GppNHp/RAF1 RBD-3xFLAG (52-151) (Homo sapiens, UniProt P01116, G12D); experiment: Raf1-KRAS G12D-GppNHP disruption HTRF assay (Biological Example 1); assay type: binding; settings: KRAS G12D, GppNHp-loaded; Table 11
T3 construct: Avi-KRAS G12D (1-169)
Protocol: as §1, §2, §3, §4, §5

[4] = target: T4, Avi-KRAS WT (1-169) GppNHp/RAF1 RBD-3xFLAG (52-151) (Homo sapiens, UniProt P01116); experiment: Raf1-KRAS WT-GppNHP disruption HTRF assay (Biological Example 1); assay type: binding; settings: KRAS WT, GppNHp-loaded; Table 11
T4 construct: Avi-KRAS WT (1-169)
Protocol: as §1, §2, §3, §4, §5

[5] = system: GP2d cells (KRAS G12D); experiment: Cell-based pERK HTRF assay in GP2d cell (Biological Example 2); settings: GP2d, GP2d (KRAS G12D) cells, pERK HTRF
Protocol: A pERK assay (Perkin Elmer) was used to determine the effectiveness of compounds in disrupting KRAS G12D protein/effector signaling in cells.
On Day 1, cells (GP2d) were seeded into 96-well plates at 3×10^4 cells/well in 80 μL complete growth media (DMEM, 10% FBS).
On Day 2, cells were treated with compounds at 0.25% DMSO. The source plate was created with compounds diluted in media at 5-fold the final assay concentration. The compounds were run in a 9-point concentration curve starting at 1 μM or in a 9-point concentration curve starting at 100 nM, with a half-log dilution between concentrations. Twenty μL was transferred onto the cell plates (final volume in wells was 100 μL). Plates were harvested after 60 min incubation by aspirating media and adding kit-supplied 1x supplemented lysis buffer to all wells (50 μL per well). Plates were then placed on a plate shaker and incubated at 850 rpm for an additional 30 min.
Antibody mixture solution was prepared by diluting aliquoted d2 and Eu Cryptate antibodies 1:20 in kit supplied detection buffer, and mixing the diluted antibodies solutions (1:1 v:v).
Samples were homogenized by pipetting up and down and then transferred (16 μL of cell lysates) from the 96-well cell culture plate to two wells of the HTRF 384-well detection plate containing the antibody solution. Plates were centrifuged (524 g for 1 min) and allowed to incubate between 4 and 24 h at room temperature. Maximum signal is reached after 4 h incubation time and remains stable over a period of 24 hours. Therefore, readings can be made between 4 and 24 h of incubation. Plates were centrifuged again (524 g for Imin), then analyzed on the EnVision plate reader using the following settings: Excitation 320 nm, Bandwidth 75 nm; Emission 615 nm, Bandwidth 85 nm; Gain 100%; Flashes 100; Lag 60 μs.

T4 sequence (P01116 1-169 isoform P01116-2): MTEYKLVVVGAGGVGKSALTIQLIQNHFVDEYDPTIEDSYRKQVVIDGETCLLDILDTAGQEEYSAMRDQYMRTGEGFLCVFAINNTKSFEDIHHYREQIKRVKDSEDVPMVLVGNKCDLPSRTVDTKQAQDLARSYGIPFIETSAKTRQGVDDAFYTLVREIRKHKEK
T3 sequence (P01116 1-169 isoform P01116-2 G12D): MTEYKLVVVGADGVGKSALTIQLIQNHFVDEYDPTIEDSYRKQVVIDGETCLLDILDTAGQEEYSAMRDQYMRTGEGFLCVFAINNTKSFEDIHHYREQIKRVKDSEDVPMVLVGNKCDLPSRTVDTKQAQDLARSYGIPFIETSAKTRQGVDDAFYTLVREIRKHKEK
T1 sequence (P01116 1-169 isoform P01116-2 G12V): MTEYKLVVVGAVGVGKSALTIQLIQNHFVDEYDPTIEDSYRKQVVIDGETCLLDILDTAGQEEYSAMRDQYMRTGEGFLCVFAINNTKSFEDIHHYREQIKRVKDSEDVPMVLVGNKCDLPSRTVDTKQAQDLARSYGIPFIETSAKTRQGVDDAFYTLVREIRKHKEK
T2 sequence (P01116 1-169 isoform P01116-2 G12R): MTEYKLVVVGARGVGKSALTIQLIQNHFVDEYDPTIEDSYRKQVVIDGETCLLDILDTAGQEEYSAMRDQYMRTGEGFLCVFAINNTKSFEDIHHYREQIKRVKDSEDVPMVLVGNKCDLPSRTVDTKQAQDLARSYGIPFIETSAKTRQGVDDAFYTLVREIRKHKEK

IC50 [1] [nM]	IC50 [2] [nM]	IC50 [3] [nM]	IC50 [4] [nM]	IC50 [5] [nM]	Structure (SMILES)
> 10000	1000 to 10000	1000 to 10000	1000 to 10000		CN(c1nc(OCC23CCCN2CCC3)nc2c(F)c(-c3ccc(F)c4sc(N)nc34)c(C(F)(F)F)cc12)[C@@H]1CC[C@H](O)C1 (atropisomer, axis not shown) [Compound 62]
100 to 1000	100 to 1000	100 to 1000	100 to 1000	< 100	CCN(CCO)c1nc(OC[C@@H]2C[C@@H](F)CN2C)nc2c(F)c(-c3ccc(F)c4sc(N)c(C#N)c34)c(C(F)(F)F)cc12 [Compound 177]
100 to 1000	1000 to 10000	100 to 1000	100 to 1000		CN(c1nc(OC[C@@]23CCCN2C[C@H](F)C3)nc2c(F)c(-c3ccc(F)c4sc(N)nc34)c(C(F)(F)F)cc12)[C@H]1C[C@@H](O)C1 (atropisomer, axis not shown) [Compound 8]
1000 to 10000	100 to 1000	100 to 1000	100 to 1000	< 100	C[C@@H]1COCCN1c1nc(OC[C@@]23CCCN2C[C@H](F)C3)nc2c(F)c(-c3ccc(F)c4sc(N)c(C#N)c34)c(C(F)(F)F)cc12 [Compound 134]
100 to 1000	100 to 1000	< 100	< 100	< 100	CN(c1nc(OC[C@@]23CCCN2C[C@H](F)C3)nc2c(F)c(-c3ccc(F)c4sc(N)c(C#N)c34)c(C(F)(F)F)cc12)[C@@H]1C[C@H](O)[C@H]1CO [Compound 181]
100 to 1000	100 to 1000	100 to 1000	100 to 1000	< 100	CN(CCCO)c1nc(OC[C@@]23CCCN2C[C@H](F)C3)nc2c(F)c(-c3ccc(F)c4sc(N)c(C#N)c34)c(C(F)(F)F)cc12 [Compound 73]
100 to 1000	100 to 1000	100 to 1000	100 to 1000	100 to 1000	CC(=O)NC1CN(c2nc(OC[C@@]34CCCN3C[C@H](F)C4)nc3c(F)c(-c4ccc(F)c5sc(N)c(C#N)c45)c(C(F)(F)F)cc23)C1 [Compound 88]
> 10000	> 10000	1000 to 10000	1000 to 10000		CN(c1nc(OCC23CCCN2CCC3)nc2c(F)c(-c3ccc(F)c4sc(N)nc34)c(C(F)(F)F)cc12)C1CC(CO)C1 (centres unmarked) [Compound 4]
100 to 1000	100 to 1000	100 to 1000	100 to 1000		CN(c1nc(OCC2(CN3CCOCC3)CC2)nc2c(F)c(-c3ccc(F)c4sc(N)c(C#N)c34)c(C(F)(F)F)cc12)[C@H]1C[C@@H](O)C1 (atropisomer, axis not shown) [Compound 122]
> 10000	> 10000	1000 to 10000	1000 to 10000		Nc1nc2c(-c3c(C(F)(F)F)cc4c(N5CCC(CO)C5)nc(OCC56CCCN5CCC6)nc4c3F)ccc(F)c2s1 (centres unmarked) [Compound 56]
1000 to 10000	100 to 1000	100 to 1000	100 to 1000		CN(c1nc(OC[C@@]23CCCN2C[C@H](F)C3)nc2c(F)c(-c3ccc(F)c4sc(N)c(C#N)c34)c(C(F)(F)F)cc12)[C@]1(CC#N)C[C@H](O)C1 (atropisomer, axis not shown) [Compound 249]
1000 to 10000	> 10000	> 10000	> 10000		Nc1nc2c(-c3c(C(F)(F)F)cc4c(NC[C@@H]5CC[C@H](CO)C5)nc(OCC56CCCN5CCC6)nc4c3F)ccc(F)c2s1 [Compound 68]
> 10000	1000 to 10000	1000 to 10000	> 10000		Nc1nc2c(-c3c(C(F)(F)F)cc4c(N5CCCC(O)C5)nc(OCC56CCCN5CCC6)nc4c3F)ccc(F)c2s1 (centres unmarked) [Compound 53]
> 10000	> 10000	> 10000	> 10000		CN(c1nc(OCC23CCCN2CCC3)nc2c(F)c(-c3ccc(F)c4sc(N)nc34)c(C(F)(F)F)cc12)C1CC(O)C12CCCC2 (single isomer, unassigned) [Compound 10]
> 10000	1000 to 10000	1000 to 10000	1000 to 10000		Nc1nc2c(-c3c(C(F)(F)F)cc4c(N5CC(CO)C5)nc(OCC56CCCN5CCC6)nc4c3F)ccc(F)c2s1 [Compound 57]
1000 to 10000	1000 to 10000	1000 to 10000	1000 to 10000		Nc1nc2c(-c3c(C(F)(F)F)cc4c(N[C@H]5CC[C@@H](O)CC5)nc(OCC56CCCN5CCC6)nc4c3F)ccc(F)c2s1 [Compound 64]
> 10000		1000 to 10000	1000 to 10000		CN(c1nc(OCC23CCCN2CCC3)nc2c(F)c(-c3ccc(F)c4sc(N)nc34)c(C(F)(F)F)cc12)[C@H]1C[C@H](CO)C1 (atropisomer, axis not shown) [Compound 1]
100 to 1000		100 to 1000	100 to 1000	100 to 1000	N#Cc1c(N)sc2c(F)ccc(-c3c(C(F)(F)F)cc4c(N5CC6(CC(O)C6)C5)nc(OC[C@@]56CCCN5C[C@H](F)C6)nc4c3F)c12 [Compound 58]
1000 to 10000	1000 to 10000	100 to 1000	100 to 1000		Nc1nc2c(-c3c(C(F)(F)F)cc4c(N5CCC(CO)CC5)nc(OCC56CCCN5CCC6)nc4c3F)ccc(F)c2s1 [Compound 43]
> 10000		> 10000	> 10000		CCC(=O)N1C2CCC1CN(c1nc(OC[C@@]34CCCN3C[C@H](F)C4)nc3c(F)c(-c4ccc(F)c5sc(N)nc45)c(C(F)(F)F)cc13)C2 [Compound 97]
1000 to 10000		1000 to 10000	100 to 1000		CO[C@H]1CN2CCC[C@]2(COc2nc(N(C)[C@H]3C[C@@H](O)C3)c3cc(C(F)(F)F)c(-c4ccc(F)c5sc(N)nc45)c(F)c3n2)C1 (atropisomer, axis not shown) [Compound 14]
> 10000		1000 to 10000	1000 to 10000		Nc1nc2c(-c3c(C(F)(F)F)cc4c(N5CCC(O)CC5)nc(OCC56CCCN5CCC6)nc4c3F)ccc(F)c2s1 [Compound 51]
1000 to 10000	1000 to 10000	1000 to 10000	1000 to 10000		CN(c1nc(OCC2(CN3CCOCC3)CC2)nc2c(F)c(-c3ccc(F)c4sc(N)nc34)c(C(F)(F)F)cc12)[C@H]1C[C@@H](O)C1 (atropisomer, axis not shown) [Compound 16]
> 10000	> 10000	1000 to 10000	1000 to 10000		Nc1nc2c(-c3c(C(F)(F)F)cc4c(N5CCC(O)C5)nc(OCC56CCCN5CCC6)nc4c3F)ccc(F)c2s1 (centres unmarked) [Compound 55]
> 10000		1000 to 10000	1000 to 10000		Nc1nc2c(-c3c(C(F)(F)F)cc4c(N[C@H]5CC[C@H](O)CC5)nc(OCC56CCCN5CCC6)nc4c3F)ccc(F)c2s1 [Compound 63]
> 10000		1000 to 10000	1000 to 10000		Nc1nc2c(-c3c(C(F)(F)F)cc4c(N[C@H]5C[C@@H](O)C5)nc(OCC56CCCN5CCC6)nc4c3F)ccc(F)c2s1 (atropisomer, axis not shown) [Compound 9]
1000 to 10000	100 to 1000	100 to 1000	100 to 1000		CN(c1nc(OC[C@@]23CCCN2C[C@H](F)C3)nc2c(F)c(-c3ccc(F)c4sc(N)c(C#N)c34)c(C(F)(F)F)cc12)[C@H]1C[C@@H](F)C1 (atropisomer, axis not shown) [Compound 160]
> 10000		1000 to 10000	1000 to 10000		Nc1nc2c(-c3c(C(F)(F)F)cc4c(N[C@H]5CC[C@@H](O)C5)nc(OCC56CCCN5CCC6)nc4c3F)ccc(F)c2s1 (atropisomer, axis not shown) [Compound 60]
